Assay results from patent US6468555B1, “Pesticidal compositions” (Sumitomo Chemical Company, Limited, priority 1999, dated 2002).

Key:
Aphis gossypii = test: Pesticidal test against Aphis gossypii on potted cabbage plants (foliar spray); assay type: in vivo; conditions: 2.0 ppm active ingredient, 20 adults set free per pot; for Number of surviving aphids per pot After 3 days: 3 days after spraying; for Number of surviving aphids per pot After 6 days: 6 days after spraying
From the text: Pesticidal Test Against Aphis gossypii
Twenty adults of Aphis gossypii were set free on three-leafed cabbage plants in pots. These plants were uniformly sprayed using a spray gun with a water dilution in a prescribed concentration of a commercial product of compound A (trade name: Lano 10EC; available from Sumitomo Chemical Co., Ltd.), a commercial product of compound B (trade name: Baroque Flowable; available from Yashima Chemical Industry Co., Ltd.), or a mixture of the commercial product of compound A and the commercial product of compound B. After air drying, the pots were placed in a greenhouse. On a predetermined day after the application, the cabbage plants were examined for the number of aphids surviving thereon.

Bemisia argentifolii = test: Pesticidal test against Bemisia argentifolii first-instar nymphs on cabbage seedlings (foliar spray); assay type: in vivo; conditions: 16 days after application
From the text: Pesticidal Test Against Bemisia argentifolii
Cabbage seedlings infested with first-instar nymphs of Bemisia argentifollii were uniformly sprayed using a spray gun with a water dilution in a prescribed concentration of a commercial product of compound A (trade name: Lano 10EC; available from Sumitomo Chemical Co., Ltd.), a commercial product of compound B (trade name: Baroque Flowable; available from Yashima Chemical Industry Co., Ltd.), or a mixture of the commercial product of compound A and the commercial product of compound B. After air drying, each of the cabbage seedlings was placed in a net cage and kept in a greenhouse. After 16 days from the application, the number of emergent adults was determined.

SMILES	Number of surviving aphids per pot After 3 days (Aphis gossypii)	Number of surviving aphids per pot After 6 days (Aphis gossypii)	Number of emergent adults (Bemisia argentifolii; 0.2 ppm, 108 nymphs used)	Number of emergent adults (Bemisia argentifolii; 0.4 ppm, 125 nymphs used)
CC(COc1ccc(Oc2ccccc2)cc1)Oc1ccccn1 (stereo not drawn) [Compound A, 4-phenoxyphenyl 2-(2-pyridyloxy)propyl ether]	45	11	13	–
CCOc1cc(C(C)(C)C)ccc1C1COC(c2c(F)cccc2F)=N1 (stereo not drawn) [Compound B, 2-(2,6-difluorophenyl)-4-(2-ethoxy-4-tert-butyl-phenyl)-2-oxazoline]	11	25	–	51
